In series [1] the target is T1, Solute carrier family 2, facilitated glucose transporter member 1 (Homo sapiens, UniProt P11166).
T1 sequence (P11166 whole entry): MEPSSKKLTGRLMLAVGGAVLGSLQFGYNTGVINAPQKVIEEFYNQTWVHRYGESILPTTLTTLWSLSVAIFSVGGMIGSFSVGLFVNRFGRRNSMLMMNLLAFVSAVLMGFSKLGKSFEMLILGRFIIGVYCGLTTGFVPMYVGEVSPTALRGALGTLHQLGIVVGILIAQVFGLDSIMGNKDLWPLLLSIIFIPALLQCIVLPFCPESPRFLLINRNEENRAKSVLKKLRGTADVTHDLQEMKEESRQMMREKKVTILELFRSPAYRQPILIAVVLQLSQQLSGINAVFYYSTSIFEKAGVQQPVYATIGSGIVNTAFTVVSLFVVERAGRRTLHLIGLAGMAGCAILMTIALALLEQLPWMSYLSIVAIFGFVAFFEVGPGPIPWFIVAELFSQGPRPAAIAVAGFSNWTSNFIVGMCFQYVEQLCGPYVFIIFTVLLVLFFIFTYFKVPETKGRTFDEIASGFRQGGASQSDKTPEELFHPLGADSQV
Briefly: Inhibition of human GLUT1 expressed in DLD1 cells assessed as ATP production co-incubated with 100 mM glucose for 16 hrs by CellTiter-Glo assay in presence of oxidative phosphorylation inhibitor rotenone. The format is cell-based, DLD-1.

The target of series [2] is T2, Solute carrier family 2, facilitated glucose transporter member 2 (Homo sapiens, UniProt P11168).
T2 sequence (P11168 whole entry): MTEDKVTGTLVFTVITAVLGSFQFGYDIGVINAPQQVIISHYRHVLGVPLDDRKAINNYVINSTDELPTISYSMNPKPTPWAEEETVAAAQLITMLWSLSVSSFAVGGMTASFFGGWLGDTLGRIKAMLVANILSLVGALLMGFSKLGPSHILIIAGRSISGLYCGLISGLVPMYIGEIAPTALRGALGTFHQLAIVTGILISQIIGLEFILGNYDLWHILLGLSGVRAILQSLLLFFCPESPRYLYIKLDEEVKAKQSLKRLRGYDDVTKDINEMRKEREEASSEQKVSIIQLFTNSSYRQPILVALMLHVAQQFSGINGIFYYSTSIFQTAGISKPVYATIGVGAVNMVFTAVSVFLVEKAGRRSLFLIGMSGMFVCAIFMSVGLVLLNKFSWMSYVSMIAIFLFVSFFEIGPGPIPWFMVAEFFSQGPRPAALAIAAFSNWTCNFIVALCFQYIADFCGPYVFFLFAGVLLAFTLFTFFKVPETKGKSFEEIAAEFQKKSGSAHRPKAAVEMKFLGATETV
Kind of series: Inhibition of human GLUT2 expressed in CHO cells assessed as ATP production co-incubated with 30 mM fructose for 16 hrs by CellTiter-Glo assay in presence of oxidative phosphorylation inhibitor rotenone. The format is cell-based. Background: In ATP-based viability assays light output follows the ATP content of the culture.

Series [3] has as its target T3, Solute carrier family 2, facilitated glucose transporter member 3 (Homo sapiens, UniProt P11169).
T3 sequence (P11169 whole entry): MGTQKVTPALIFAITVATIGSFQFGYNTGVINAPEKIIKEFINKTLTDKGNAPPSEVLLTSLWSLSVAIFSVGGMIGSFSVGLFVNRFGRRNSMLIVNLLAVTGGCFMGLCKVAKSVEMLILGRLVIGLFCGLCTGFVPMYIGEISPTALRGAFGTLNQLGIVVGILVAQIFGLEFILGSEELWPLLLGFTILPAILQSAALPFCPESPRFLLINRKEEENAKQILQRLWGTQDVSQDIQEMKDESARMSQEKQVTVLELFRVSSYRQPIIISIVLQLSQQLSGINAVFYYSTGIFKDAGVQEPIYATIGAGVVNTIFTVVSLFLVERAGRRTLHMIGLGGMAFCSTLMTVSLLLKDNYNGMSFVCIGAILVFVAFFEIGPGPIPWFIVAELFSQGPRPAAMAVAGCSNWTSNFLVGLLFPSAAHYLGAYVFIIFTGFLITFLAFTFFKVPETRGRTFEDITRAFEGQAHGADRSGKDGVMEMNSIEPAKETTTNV
Kind of series: Inhibition of human GLUT3 expressed in GLUT1 knock-out DLD1 cells assessed as ATP production co-incubated with 300 mM glucose for 16 hrs by CellTiter-Glo assay in presence of oxidative phosphorylation inhibitor rotenone. In kind it is cell-based, DLD-1.

A short description of series [4]: Intrinsic clearance in rat hepatocytes. In kind it is ADME, cell-based, Hepatocyte. The following applies: read-out: CLH (converted).
Series [5] is described as follows: Intrinsic clearance in human liver microsomes. In kind it is ADME. The following applies: read-out: CLH (converted). Background: Liver microsomes are a subcellular fraction often used to study metabolism.
A short description of series [6]: Apparent permeability from apical to basolateral side in human Caco2 cells at 2 uM after 2 hrs. The format is ADME, cell-based. As to conditions: Caco-2. A general note: Caco-2 cells form a polarised layer with tight junctions and transporters.
The nature of series [7]: Efflux ratio of apparent permeability from basolateral to apical side over apical to basolateral side in human Caco2 cells. The format is ADME, cell-based. As to conditions: Caco-2.
Series [8] is described as follows: Intrinsic clearance in rat liver microsomes. The format is ADME. The following applies: read-out: CLH (converted).
Series [9] is described as follows: Intrinsic clearance in mouse liver microsomes. The following applies: read-out: CLH (converted). The format is ADME.
Series [10] is described as follows: Intrinsic clearance in human hepatocytes. The following applies: read-out: CLH (converted). In kind it is ADME, cell-based, Hepatocyte.
The nature of series [11]: Blood clearance in Wistar rat at 0.3 mg/kg, iv and 5 mg/kg, po. As to conditions: whole blood. The format is ADME, organism-based.
Series [12] is described as follows: Volume of distribution at steady state in Wistar rat at 0.3 mg/kg, iv and 5 mg/kg, po. In kind it is ADME, organism-based. The following applies: in vivo, read-out: Vdss.
A short description of series [13]: Terminal half life in Wistar rat at 0.3 mg/kg, iv and 5 mg/kg, po. The format is ADME, organism-based. The following applies: in vivo, read-out: beta t1/2 (converted).
Series [14] in a line: Cmax in Wistar rat at 5 mg/kg, po. The format is ADME, organism-based. More on the design: dose 5 mg/kg, route oral. The following applies: in vivo.
Series [15] in a line: Oral bioavailability in Wistar rat at 5 mg/kg. In kind it is ADME, organism-based. As to conditions: in vivo.

The structures appear in SMILES notation. Some results are limits rather than exact numbers.

One may read the IC50 as the concentration that inhibits the measured activity by half. Regarding `COc1ccccc1N1CCN(c2ncnc3c2cnn3-c2ccc(C)cc2)CC1`, the IC50 in series [1] amounted to 1500 nM; in series [2], 10 µM; in series [3], 3000 nM.
With `COc1ccc(F)cc1N1CCN(c2ncnc3c2cnn3-c2ccccc2)CC1`, the IC50 in series [1] was 1 nM; in series [2], over 10 µM; in [3], 10 nM. For the same molecule, the CLint scaled is 43.3 mL/min/kg in [4] and 6.17 mL/min/kg in [5].
As to `COc1ccccc1N1CCN(c2ncnc3c2cnn3-c2ccccn2)CC1`, the half-maximal inhibitory concentration (IC50) stood at 510 nM in series [1], 8 µM in series [2] and 940 nM in [3].
`COc1ccccc1N1CCN(c2ncnc3c2cnn3-c2cc(F)cc(F)c2)CC1`: the IC50 is 8 nM in [1], over 10 µM in series [2] and 90 nM in [3].
As to `COc1ccccc1N1CCN(c2ncnc3c2cnn3-c2cc(F)ccc2OC)CC1`, the IC50 in series [1] is 30 nM; in [2], 0.88 µM; in [3], 320 nM.
By Papp A→B is commonly meant the apparent permeability from the apical to the basolateral side of a cell layer. One may read the efflux ratio as a quotient of directional permeabilities that is used to spot active efflux. In the case of `COc1ccccc1N1CCN(c2ncnc3c2cnn3C2CCCC2)CC1`, the IC50 in series [1] stood at 40 nM; in [2], 2 µM; in series [3] it was 120 nM. Moreover, the CLint scaled in series [4] was 61.7 mL/min/kg; in series [5], 13.8 mL/min/kg. In addition, the Papp A→B at 2 h, 2 µM in [6] was 15.3 ×10⁻⁶ cm/s. The efflux ratio in series [7] came out at 0.33.
In the case of `COc1ccccc1N1CCN(c2ncnc3c2cnn3C(C)c2ccccc2)CC1` (stereo unspecified), the results for the IC50 in [1], in series [2] and in series [3] were 410 nM, 2.1 µM and 950 nM, respectively.
Take `COc1ccccc1N1CCN(c2ncnc3c2cnn3-c2ccncc2)CC1`: the figures for the IC50 in [1], in [2] and in [3] were 1200 nM, 4.4 µM and 1600 nM, respectively.
Taken in the same sequence, the figures for `COc1ccccc1N1CCN(c2ncnc3c2cnn3-c2ccc(F)cc2)CC1` were 17 nM, over 10 µM and 46 nM.
Consider `COc1ccccc1N1CCN(c2ncnc3c2cnn3-c2ccccc2)CC1`, for which the IC50 in [1] is 25 nM; in series [2], over 10 µM; in series [3], 250 nM. For the same molecule, the CLint scaled in [4] is 45 mL/min/kg; in series [5], 2.33 mL/min/kg; in series [8], 36.7 mL/min/kg; in series [9], 38.3 mL/min/kg; in series [10], 14 mL/min/kg. Further, the Papp A→B at 2 h, 2 µM in [6] is 5.9 ×10⁻⁶ cm/s. The efflux ratio in series [7] was found to be 0.29.
Consider `COc1ccccc1N1CCN(c2ncnc3c2cnn3-c2ccc(C#N)cc2)CC1`, for which the IC50 is 17 nM in series [1], over 10 µM in series [2] and 200 nM in series [3].
What is called Cmax is the maximum level reached in the sampled fluid or tissue. The term bioavailability denotes dose-corrected exposure relative to a reference, in per cent. Turning to `COc1ccccc1N1CCN(c2ncnc3c2cnn3-c2ccccc2F)CC1`, the IC50 in [1] stood at 7 nM; in series [2], 1.1 µM; in series [3], 40 nM. Moreover, the CLint scaled is 36.7 mL/min/kg in series [4], 8.33 mL/min/kg in series [5], 28.3 mL/min/kg in series [9] and 13.2 mL/min/kg in series [10]. Besides, in [6], the Papp A→B at 2 h, 2 µM worked out at 17.5 ×10⁻⁶ cm/s. In addition, the efflux ratio in [7] was 0.42. Moreover, in series [11], the clearance was 20 mL/min/kg. Moreover, the Vd in series [12] worked out at 1.9 L/kg. Also, the half-life in series [13] is 162 min. In addition, in [14], the Cmax is 1700 nM. In addition, the bioavailability in series [15] was determined as 67%.
Turning to `COc1ccc(-n2ncc3c(N4CCN(c5ccccc5OC)CC4)ncnc32)cc1`, the half-inhibitory concentration (IC50) in [1] amounted to 230 nM; in [2], 2.6 µM; in series [3], 170 nM.
Regarding `COc1ccccc1N1CCN(c2ncnc3c2cnn3-c2cccc(F)c2)CC1`, the IC50 in [1] is 35 nM; in [2] it was over 10 µM; in series [3], 120 nM. Moreover, the CLint scaled is 9.17 mL/min/kg in series [5] and 31.7 mL/min/kg in series [9].
Turning to `COc1ccccc1N1CCN(c2ncnc3c2cnn3-c2cccnc2)CC1`, the IC50 amounted to 750 nM in series [1], 6 µM in series [2] and 1500 nM in series [3].

Source of the values: ChEMBL document CHEMBL3779893, “Identification of novel GLUT inhibitors” (Bioorg Med Chem Lett, 2016).
